Experimental data published in publication PMC9233675, “Ru(II) photocages enable precise control over enzyme activity with red light” (Nature Communications, 2022).
Positions count from the first letter of the chain named.

Legend:
CYP1B1 Q332E = molecular target: T1, CYP1B1 Q332E (Homo sapiens, UniProt Q16678, Q332E)
T1 sequence (Q16678 1-543 Q332E): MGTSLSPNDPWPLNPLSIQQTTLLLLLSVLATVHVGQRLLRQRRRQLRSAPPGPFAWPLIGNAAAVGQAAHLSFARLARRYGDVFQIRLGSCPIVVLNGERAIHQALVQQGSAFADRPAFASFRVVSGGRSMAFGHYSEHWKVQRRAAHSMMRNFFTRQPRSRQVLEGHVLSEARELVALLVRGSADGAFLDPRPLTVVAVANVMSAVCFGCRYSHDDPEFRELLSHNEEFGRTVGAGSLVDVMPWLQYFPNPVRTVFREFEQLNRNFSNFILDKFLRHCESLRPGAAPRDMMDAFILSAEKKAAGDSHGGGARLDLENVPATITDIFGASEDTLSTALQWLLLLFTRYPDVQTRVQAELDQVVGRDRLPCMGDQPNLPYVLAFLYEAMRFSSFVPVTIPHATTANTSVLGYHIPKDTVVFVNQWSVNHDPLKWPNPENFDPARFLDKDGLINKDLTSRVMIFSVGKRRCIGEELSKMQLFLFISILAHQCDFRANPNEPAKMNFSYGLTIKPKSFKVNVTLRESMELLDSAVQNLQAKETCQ
Text: (§1) Site directed mutagenesis was used to probe the importance of specific active-site contacts identified through the structural assessment (Fig. 3a, b) and simulations. In all cases, conservative mutations were made to maintain polar or hydrophobic character and approximate size. The aromatic residues that frame the inhibitor binding site, Phe143 and Phe231, were mutated to Leu to determine the importance of the π interactions. In addition, the Ser127 residue, located in the upper corner of the active site on the B-C loop, was chosen for mutation based on the simulations. This amino acid transiently contacts the inhibitors, but also forms a hydrogen bond with Asp326 of the I-helix, and thus may impact the position of this helix with regards to the B-C loop. […] Rather than directly mutating these residues in the I-helix, neighboring residues Gln332 and Asp333 were targeted, with the hope of interrupting amino acid interactions that position the helix within the active site.
(§2) The ratio of IC50 values for the WT vs. the mutant are shown in Fig. 3c and reflects the importance of the specific contact; the log of the value is used to aid in visualization.
(§3) Cell lines were seeded onto Geltrex coated 96-well plates at 40,000 cells/well, and grown overnight in DMEM media containing 1 μg/mL tetracycline. The media was then replaced with Opti-MEM supplemented with 2% FBS and 1 μg/mL tetracycline. Compounds were serially diluted in Opti-MEM supplemented with 2% FBS and 1 μg/mL tetracycline and an equal volume of compound added to the cells (n = 3). Following a 1 h incubation, resorufin ethyl ether (REE; for CYP1B1 and 1A1) or dibenzylfluorescein (DBF; for 19A1) was added to the cells for a total concentration of 5 μM for REE and 1 μM for DBF. […] Dose–response curves were generated in Prism and normalized using the no-compound control (set as 100% activity) and the no-cell control (set as 0% activity; this value in the raw data reflects the background fluorescence of the dye alone).

CYP1B1 S127A = molecular target: T2, CYP1B1 S127A (Homo sapiens, UniProt Q16678, S127A)
T2 sequence (Q16678 1-543 S127A): T1 sequence (Q16678 1-543 Q332E) with S127A, E332Q
Text: as §1, §2, §3

CYP1B1 S269A = molecular target: T3, CYP1B1 S269A (Homo sapiens, UniProt Q16678, S269A)
T3 sequence (Q16678 1-543 S269A): T1 sequence (Q16678 1-543 Q332E) with S269A, E332Q
Text: as §1, §2, §3

CYP1B1 F134L = molecular target: T4, CYP1B1 F134L (Homo sapiens, UniProt Q16678, F134L)
T4 sequence (Q16678 1-543 F134L): T1 sequence (Q16678 1-543 Q332E) with F134L, E332Q
Text: as §1, §2, §3

CYP1B1 D333N = molecular target: T5, CYP1B1 D333N (Homo sapiens, UniProt Q16678, D333N)
T5 sequence (Q16678 1-543 D333N): T1 sequence (Q16678 1-543 Q332E) with E332Q, D333N
Text: as §1, §2, §3

For `O=c1cc(-c2ccccc2)oc2c1ccc1ccccc12` [ANF, α-naphthoflavone], the “logSI Q332E” value (CYP1B1 Q332E) was 0.906, the “logSI S127A” value (CYP1B1 S127A) was -1.15 and the “logSI S269A” value (CYP1B1 S269A) was 0. For the same molecule, the “logSI F134L” value (CYP1B1 F134L) was -0.301 and the “logSI D333N” value (CYP1B1 D333N) was 1.497.
